According to patent publication US20220267478A1, “PEPTIDE-LOADED CARRIER SYSTEMS AND USES THEREOF” (Academia Sinica, priority 2019, published 2022):
≈ marks a conversion by molar mass, not a printed value. Ends that are not written are not given here.

How the values were obtained:
[1] = Aqueous solubility of peptides; conditions: for Solubility of unmodified peptide epitope: Table 1; for solubility / water solubility (in words): water
[2] = from Vasievich et al.; cited from earlier work
CD8 T cells = experiment: Trp2-specific CD8 T cell response in splenocytes of vaccinated mice (intracellular IFN-γ staining, flow cytometry); assay type: in vivo, C57BL/6 mice; conditions: peptide in nanoparticles with cdGMP; FIG. 10
Experimental: The immunogenicity of modified Trp2 peptides was tested by encapsulating them in the aqueous core of hollow thin-shell nanoparticles together with a fixed amount of stimulator of interferon genes (STING) agonist cyclic di-GMP (cdGMP) and injecting them into mice.
The modified Trp2 peptides were as follows: (i) D4-Trp2-D5, (ii) Trp2-D5, (iii) D5-Trp2, (iv) D2G3-Trp2-G3D2, (v) Trp2-G3D3, and (vi) D3G3-Trp2. As Trp2 itself cannot be incorporated into the aqueous core due to its hydrophobicity, a longer Trp2 peptide, namely, Trp2168-195 was encapsulated as a positive control.
Nanoparticles each containing an equivalent dose of one of the Trp2 peptides and cdGMP were prepared as described in Example 1 above and administered to C57BL/6 mice on day 0 and day 21 by subcutaneous injection at the base of the tail. On day 28, splenocytes of the vaccinated mice were isolated and examined for Trp2-specific CD8 T cell immune responses. Briefly, splenocytes from each mouse were challenged with Trp2 peptide and expression of IFN-γ in CD8 T cells was measured by intracellular cytokine staining and flow cytometry.

JAWSII dendritic cells = experiment: Dendritic cell surface marker expression after nanoparticle incubation and LPS stimulation; assay type: cell-based; conditions: FIG. 24
Experimental: FIG. 24 includes bar graphs showing the percentage of JAWSII dendritic cells expressing CD80 (upper left panel), CD86 (upper right panel), MHC I (bottom left panel) and MHC II (bottom right panel) assessed by flow cytometric analysis after the cells were co-cultured with the indicated aspirin/peptide formulations.
Dendritic cells were incubated with nanoparticles co-encapsulating adaptor modified OTII peptide and aspirin or adaptor-modified peptides only for 6 h, and then were stimulated with low dose of lipopolysaccharide (“LPS”). Dendritic cell phenotypes were observed 24 h later. See the experimental scheme in FIG. 23.

Compound: CC[C@H](C)[C@H](NC(=O)[C@@H](NC(=O)[C@@H](N)CO)[C@@H](C)CC)C(=O)N[C@@H](CC(N)=O)C(=O)N[C@@H](Cc1ccccc1)C(=O)N[C@@H](CCC(=O)O)C(=O)N[C@@H](CCCCN)C(=O)N[C@@H](CC(C)C)C(=O)O [OVA257-264, SIINFEKL]
- Solubility of unmodified peptide epitope [1]: hydrophilic
- solubility [1]: 2 mM (≈ 1930 µg/mL)

Compound: CC(C)C[C@H](NC(=O)[C@H](Cc1c[nH]c2ccccc12)NC(=O)[C@@H](NC(=O)[C@H](Cc1ccccc1)NC(=O)[C@H](Cc1ccccc1)NC(=O)[C@H](CC(=O)O)NC(=O)[C@H](Cc1ccc(O)cc1)NC(=O)[C@@H](NC(=O)[C@@H](N)CO)C(C)C)C(C)C)C(=O)O [Trp2, SVYDFFVWL]
- maximum solubility in water [2]: 0.06 mM

Compound: AQLANDVVL [Resp1, AQLANDVVL]
- Solubility of unmodified peptide epitope [1]: hydrophobic
- water solubility (in words) [1]: poorly soluble

Compound: ASMTNMELM [Adpgk, ASMTNMELM]
- Solubility of unmodified peptide epitope [1]: hydrophobic
- water solubility (in words) [1]: poorly soluble

Compound: DDDGGGSIINFEKL [D3G3-OVA]
- solubility [1]: 50 mM

Compound: DDDGGGSVYDFFVWL [D3G3-Trp2, DDDGGGSVYDFFVWL]
- solubility fold higher than the Trp2 peptide ([1]; H2O): over 500 fold
- solubility [1]: > 30 mM

Compound: FQDAYNAAGGHNAVF [Mycobacterium tuberculosis p25, FQDAYNAAGGHNAVF]
- Solubility of unmodified peptide epitope [1]: hydrophobic

Compound: ISQAVHAAHAEINEAGR [OT-II, ISQAVHAAHAEINEAGR]
- Solubility of unmodified peptide epitope [1]: hydrophilic

Compound: KVPRNQDWL [gp100, KVPRNQDWL]
- Solubility of unmodified peptide epitope [1]: hydrophilic

Compound: QVYSLIRPNENPAHK [influenza virus nucleoprotein NP311, QVYSLIRPNENPAHK]
- Solubility of unmodified peptide epitope [1]: hydrophilic

Compound: SIIVFNLL [Dpagt1, SIIVFNLL]
- Solubility of unmodified peptide epitope [1]: hydrophobic
- water solubility (in words) [1]: poorly soluble

Compound: TAYRYHLL [Trp1m, TAYRYHLL]
- Solubility of unmodified peptide epitope [1]: hydrophilic

Compound: Trp2168-195: longer Trp2 peptide containing sequences flanking the target epitope 180-188; positive control
- CD8+ T cell response, fold weaker compared to D3G3-Trp2 (CD8 T cells): ~20 fold

Compound: lipopolysaccharide [LPS]
- expression of CD80, CD86, MHC I, and MHC II compared to vehicle control (JAWSII dendritic cells): increased expression
